Reference: ChEMBL document CHEMBL1130932, “Hepatoprotective and nitric oxide production inhibitory activities of coumarin and polyacetylene constituents from the roots of Angelica furcijuga” (Bioorg Med Chem Lett, 1998)

Assays:
Type in all cases: functional
[1] = species on record: Mus musculus; test: Inhibitory activity against LPS-induced NO production in mouse peritoneal macrophages was evaluated
[2] = species on record: Rattus norvegicus; test: Inhibitory activity against D-GalN-induced cytotoxicity in rat hepatocytes at 100 uM; conditions: Hepatocyte
[3] = species on record: Rattus norvegicus; test: Inhibitory activity against D-GalN-induced cytotoxicity in rat hepatocytes; conditions: Hepatocyte
[4] = species on record: Mus musculus; test: Inhibitory activity from the roots of Angelica furcijuga on LPS-induced NO production in mouse peritoneal macrophages was evaluated at 100 uM
[5] = species on record: Mus musculus; test: Inhibitory activity against LPS-induced NO production in mouse peritoneal macrophages was evaluated at 100 uM

SMILES	IC50 [1] [µM]	inhibition at 100 µM [2] [%]	IC50 [3] [µM]	inhibition at 100 µM [4] [%]	inhibition at 100 µM [5] [%]	Inhibition [1] [%]
CC1(C)Oc2ccc3ccc(=O)oc3c2[C@@H](O)[C@H]1O	91	6.5	> 100	–	–	–
COc1c2ccoc2cc2oc(=O)ccc12 [BERGAPTEN]	> 100	23	> 100	49	–	–
C=C[C@@H](O)C#CC#CC/C=C\CCCCCCC	4.8	-0.6	> 100	–	–	–
CC(C)(O)C1Cc2cc(CCC(=O)O)c(O[C@@H]3O[C@H](CO)[C@@H](O)[C@H](O)[C@H]3O)cc2O1 (stereo partly drawn)	> 100	0.6	> 100	32	–	–
CC1(C)Oc2ccc3ccc(=O)oc3c2[C@H](O)[C@H]1O	> 100	1.5	> 100	–	36	–
C=C[C@@H](O)C#CC#C[C@@H](O)/C=C\CCCCCCC [FALCARINDIOL]	4.4	-33	> 100	–	–	–
CC(C)(O)[C@H](O)Cc1cc2ccc(=O)oc2cc1O[C@@H]1O[C@H](CO)[C@@H](O)[C@H](O)[C@H]1O	> 100	5.8	> 100	49	–	–
CC(=O)O[C@@H]1c2c(ccc3ccc(=O)oc23)OC(C)(C)[C@@H]1OC(=O)C1(C)OC1C (stereo partly drawn)	53	–	29	–	–	–
COc1cc(C(O)C(CO)Oc2ccc(/C=C/CO[C@@H]3O[C@H](CO)[C@@H](O)[C@H](O)[C@H]3O)cc2OC)ccc1O (stereo partly drawn)	> 100	-0.2	> 100	–	–	-26
CC1(C)Oc2ccc3ccc(=O)oc3c2C[C@H]1O[C@@H]1O[C@H](CO)[C@@H](O)[C@H](O)[C@H]1O	> 100	1.4	> 100	21	–	–
O=c1ccc2ccc(O[C@@H]3O[C@H](COC4OC[C@](O)(CO)[C@H]4O)[C@@H](O)[C@H](O)[C@H]3O)cc2o1 (stereo partly drawn)	> 100	-2.1	> 100	36	–	–

Now from value to compound, other results behind:

IC50 [1] [µM]	SMILES	inhibition at 100 µM [2] [%]	IC50 [3] [µM]	inhibition at 100 µM [4] [%]	inhibition at 100 µM [5] [%]	Inhibition [1] [%]
8.8	C/C=C(\C)C(=O)O[C@@H]1[C@H](OC(=O)C(C)C)c2c(ccc3ccc(=O)oc23)OC1(C)C	10	> 100	–	–	–
8.8	C/C=C(\C)C(=O)O[C@@H]1[C@H](OC(C)=O)c2c(ccc3ccc(=O)oc23)OC1(C)C	13	> 100	–	–	–
3.4	C/C=C(\C)C(=O)O[C@@H]1c2c(ccc3ccc(=O)oc23)OC(C)(C)[C@@H]1OC(=O)/C(C)=C/C	2.8	> 100	–	–	–
5.1	C/C=C(\C)C(=O)O[C@@H]1[C@H](OC(=O)C(C)CC)c2c(ccc3ccc(=O)oc23)OC1(C)C (stereo partly drawn)	-0.5	> 100	–	–	–
4.2	CC(=O)O[C@@H]1[C@H](OC(=O)C(C)C)c2c(ccc3ccc(=O)oc23)OC1(C)C [SERAVSHANIN]	-2.2	> 100	–	–	–
20	C/C=C(\C)C(=O)O[C@@H]1c2c(ccc3ccc(=O)oc23)OC(C)(C)[C@@H]1OC(C)=O [PTERYXIN]	4.4	> 100	–	–	–
11	CC(=O)O[C@@H]1[C@H](OC(=O)CC(C)C)c2c(ccc3ccc(=O)oc23)OC1(C)C [SUKSDORFIN]	-3.4	> 100	–	–	–
8.2	CCC(C)C(=O)O[C@@H]1c2c(ccc3ccc(=O)oc23)OC(C)(C)[C@@H]1OC(C)=O (stereo partly drawn)	-2.5	> 100	–	–	–
